Test: radical trapping test (ABTS radical cations)
Settings: 20 μM, 5 to 120 minutes, FIG. 5
Experimental: The antioxidant 1 (freeze-dried powder of protease degradation product) produced was evaluated for the radical trapping activity against ABTS radical cations (unnatural model radical), according to the spectrophotometric method described in Biol. Pharm. Bull., 29, 766-771 (2006). Specifically, the antioxidant 1 was added to 3 mL of a reaction solution containing ABTS radical cations to be a final concentration of 300 μg/mL, and at the time after 5 minutes, 15 minutes, 30 minutes, 60 minutes and 120 minutes, the residual ratio of the ABTS radical cations was determined. For comparison, a system added with ascorbic acid or arbutin in an amount of 20 μM each in place of the antioxidant 1, and a system added with water in the same amount as that of the antioxidant 1 (control) were tested in the same manner.

Compound	course of the radical residual ratio with the lapse of time
OC[C@H]1O[C@@H](Oc2ccc(O)cc2)[C@H](O)[C@@H](O)[C@@H]1O [arbutin]	did not change after further lapse of time
O=C1O[C@H]([C@@H](O)CO)C(O)=C1O [ascorbic acid]	did not change after further lapse of time

Reference: patent US11911417B2, “Nerve growth promoter and method for producing same, internal preparation, medium additive, cell dilution additive, medium, cell dilution, antioxidant and method for producing same, external preparation, and wound treatment agent and method for producing same” (LAIMU CORPORATION, priority 2016, dated 2024)
